We go through three compounds from patent US20110076293A1, “TRIPTOLIDE DERIVATIVES FOR MODULATION OF APOPTOSIS AND IMMUNOSUPPRESSION” (priority 2002, published 2011).

Molecules are shown by their SMILES.

One may read the IC50 as the concentration needed to halve the response being measured.

Data set [1] has as its system IL-2 production in Jurkat human T lymphocyte cells. Nature of the data set: IL-2 production assay for activity of compounds incubated with human serum.
Data set [2] is described as follows: in vitro. Particulars: incomplete conversion to triptolide, 48 hr incubation. As to the method:
Compounds of formula I, as shown in Table 1 above and in the Examples, were assayed for their capacity to induce apoptosis in cells from the Jurkat human T lymphocyte cell line, after incubation with pooled human serum for varying periods of time at 37° C. (see Example 19). An ester prodrug, triptolide-14-succinate, designated PG490-88, was included for comparison. The extent of conversion to triptolide after such incubation was also independently determined by HPLC analysis.
Prodrug conversions to triptolide as determined independently by HPLC are given in […].

Setting [3] is: Table 7, Jurkat cells (48 hrs), 0.001 nM.
Setting [4] is: Table 7, Jurkat cells (48 hrs), 0.01 nM.
Where [5] appears, read: Table 7, Jurkat cells (48 hrs), 0.1 nM.
[6] abbreviates: Table 7, Jurkat cells (48 hrs), 1 nM.
Setting [7] is: Table 7, Jurkat cells (48 hrs), 10 nM.
Setting [8] is: Table 7, Jurkat cells (48 hrs), 100 nM.
Setting [9] is: Table 7, Jurkat cells (48 hrs), 1000 nM.
[10] abbreviates: Table 7, Jurkat cells (48 hrs), 10000 nM.
[11] abbreviates: Table 8, Jurkat cells, 0.0001 nM.
Setting [12] is: Table 8, Jurkat cells, 0.001 nM.
The mark [13] stands for this setting: Table 8, Jurkat cells, 10000 nM.

In the case of `CC(C)[C@]12O[C@H]1[C@@H]1O[C@]13[C@]1(O[C@H]1C[C@H]1C4=C(CC[C@@]13C)C(=O)OC4)[C@@H]2O` [PG490, Triptolide], the “IL-2 pg/mL at given concentration (nM)” value was 929.7 pg/mL in data set [1] (setting [3]); 908.6 pg/mL in data set [1] (setting [4]); 937.8 pg/mL in data set [1] (setting [5]); 835.2 pg/mL in data set [1] (setting [6]); 556.1 pg/mL in data set [1] (setting [7]); 120.7 pg/mL in data set [1] (setting [8]). Besides, the “IL-2 pg/mL at given concentration (nM)” value is reported as 62.9 pg/mL in data set [1] (setting [9]); 59.2 pg/mL in data set [1] (setting [10]); 80.0 pg/mL in data set [1] (setting [11]); 97.2 pg/mL in data set [1] (setting [12]); 83.2 pg/mL in data set [1] (Table 8, Jurkat cells, 0.01 nM); 87.1 pg/mL in data set [1] (Table 8, Jurkat cells, 0.1 nM). Also, the “IL-2 pg/mL at given concentration (nM)” value in data set [1] (Table 8, Jurkat cells, 1 nM) turned out to be 75.7 pg/mL; in data set [1] (Table 8, Jurkat cells, 10 nM), 25.5 pg/mL; in data set [1] (Table 8, Jurkat cells, 100 nM), 17.8 pg/mL; in data set [1] (Table 8, Jurkat cells, 1000 nM) it was 12.9 pg/mL; in data set [1] (setting [13]), 22.3 pg/mL.

As for `CC(C)[C@]12O[C@H]1[C@@H]1O[C@]13[C@]1(O[C@H]1C[C@H]1C4=C(CC[C@@]13C)C(=O)OC4)[C@@H]2OC(=O)CCC(=O)O` [PG490-88, triptolide-14-succinate, reference compound], the “max. conversion at 48 hr in human plasma by HPLC” value in data set [2] is given as “max. 26%”. In data set [1] (IL-2 production in Jurkat cells after incubation with pooled human serum for 48 hours at 37° C.), this compound gave an IC50 of 9 nM. The “IL-2 pg/mL at given concentration (nM)” value was found to be 776.4 pg/mL in data set [1] (setting [3]); 771.0 pg/mL in data set [1] (setting [4]); 809.5 pg/mL in data set [1] (setting [5]); 732.4 pg/mL in data set [1] (setting [6]); 605.1 pg/mL in data set [1] (setting [7]); 317.5 pg/mL in data set [1] (setting [8]). In addition, the “IL-2 pg/mL at given concentration (nM)” value worked out at 65.9 pg/mL in data set [1] (setting [9]); 58.2 pg/mL in data set [1] (setting [10]); 96.1 pg/mL in data set [1] (setting [11]); 83.0 pg/mL in data set [1] (setting [12]); 87.5 pg/mL in data set [1] (Table 8, Jurkat cells, 0.01 nM); 86.3 pg/mL in data set [1] (Table 8, Jurkat cells, 0.1 nM). For the same compound, the “IL-2 pg/mL at given concentration (nM)” value in data set [1] (Table 8, Jurkat cells, 1 nM) is listed as 88.2 pg/mL; in data set [1] (Table 8, Jurkat cells, 10 nM), 42.7 pg/mL; in data set [1] (Table 8, Jurkat cells, 100 nM), 14.0 pg/mL; in data set [1] (Table 8, Jurkat cells, 1000 nM), 8.4 pg/mL; in data set [1] (setting [13]), 23.8 pg/mL. In addition, the “Conversion (%)” value in data set [1] (percent of the IC50 value produced by triptolide (PG490) in the same experiment, human serum 48 hours) is recorded as 51%.

Take `CCNC(=O)O[C@@H]1[C@@]2(C(C)C)O[C@H]2[C@@H]2O[C@]23[C@]12O[C@H]2C[C@H]1C2=C(CC[C@@]13C)C(=O)OC2` [PG666, Triptolide 14-Ethyl Carbamate]: the “concentration for equal IL-2 inhibitory activity relative to the active concentration of PG490” value in data set [1] is given as 10-30 times. In data set [1] (FIGS. 4-5), the “bioactivity in IL-2 inhibition assays (in words)” value was “some level of bioactivity”. Besides, the “IL-2 pg/mL at given concentration (nM)” value in data set [1] (setting [3]) was 844.6 pg/mL; in data set [1] (setting [4]), 799.8 pg/mL; in data set [1] (setting [5]) it was 860.6 pg/mL; in data set [1] (setting [6]) it was 773.0 pg/mL; in data set [1] (setting [7]), 819.1 pg/mL; in data set [1] (setting [8]) it was 528.0 pg/mL. In addition, the “IL-2 pg/mL at given concentration (nM)” value in data set [1] (setting [9]) is 180.1 pg/mL; in data set [1] (setting [10]), 63.5 pg/mL; in data set [1] (setting [11]), 94.3 pg/mL; in data set [1] (setting [12]), 105.1 pg/mL; in data set [1] (Table 8, Jurkat cells, 0.01 nM), 97.0 pg/mL; in data set [1] (Table 8, Jurkat cells, 0.1 nM), 92.8 pg/mL. Further, the “IL-2 pg/mL at given concentration (nM)” value in data set [1] (Table 8, Jurkat cells, 1 nM) worked out at 80.0 pg/mL; in data set [1] (Table 8, Jurkat cells, 10 nM), 89.8 pg/mL; in data set [1] (Table 8, Jurkat cells, 100 nM), 33.3 pg/mL; in data set [1] (Table 8, Jurkat cells, 1000 nM), 10.0 pg/mL; in data set [1] (setting [13]), 8.0 pg/mL.
